Data taken from the supplement of paper PMC10307832.

How the values were obtained:
Assay in all cases: relative viability (nuclei count vs DMSO), 5 days (fraction); higher = more cells survive
Cabozantinib + Alpelisib = compound: COc1cc2nccc(Oc3ccc(NC(=O)C4(C(=O)Nc5ccc(F)cc5)CC4)cc3)c2cc1OC [Cabozantinib] + Cc1nc(NC(=O)N2CCC[C@H]2C(N)=O)sc1-c1ccnc(C(C)(C)C(F)(F)F)c1 [Alpelisib] (partner 2 µM)
How it was run: (§1)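 Relative viability was taken as the ratio of nuclei in treated wells to nuclei in vehicle wells. Lung cancer cell lines in 1536-well plates received compounds by pin tool one day after seeding, either one drug alone or a fixed anchor-drug dose plus five library-drug doses (not always all listed) in √10 steps. Nuclei were counted on 4× images after 5 days of treatment, and values are medians of duplicate plates.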

[1] = compound: COc1cc2nccc(Oc3ccc(NC(=O)C4(C(=O)Nc5ccc(F)cc5)CC4)cc3)c2cc1OC [Cabozantinib] + C[C@@H](Oc1cc(-c2cnn(C3CCNCC3)c2)cnc1N)c1c(Cl)ccc(F)c1Cl [Crizotinib] (partner 1 µM)
How it was run: as §1

Zosuquidar + Alpelisib = compound: O[C@@H](COc1cccc2ncccc12)CN1CCN([C@@H]2c3ccccc3[C@@H]3[C@H](c4ccccc42)C3(F)F)CC1 [Zosuquidar] + Cc1nc(NC(=O)N2CCC[C@H]2C(N)=O)sc1-c1ccnc(C(C)(C)C(F)(F)F)c1 [Alpelisib] (partner 2 µM)
How it was run: as §1

Kobe2602 + Alpelisib = compound: C1=CC(=CC=C1NC(=S)NNC2=C(C=C(C=C2[N+](=O)[O-])C(F)(F)F)[N+](=O)[O-])F [Kobe2602] + Cc1nc(NC(=O)N2CCC[C@H]2C(N)=O)sc1-c1ccnc(C(C)(C)C(F)(F)F)c1 [Alpelisib] (partner 2 µM)
How it was run: as §1

Row | Cell Line | relative viability (Cabozantinib + Alpelisib; first compound 0.02 µM) | relative viability (Cabozantinib + Alpelisib; first compound 0.06325 µM) | relative viability (Cabozantinib + Alpelisib; first compound 0.2 µM) | relative viability (Cabozantinib + Alpelisib; first compound 0.6325 µM) | relative viability (Cabozantinib + Alpelisib; first compound 2 µM) | relative viability ([1]; first compound 0.02 µM) | relative viability ([1]; first compound 0.06325 µM) | relative viability ([1]; first compound 0.2 µM) | relative viability ([1]; first compound 0.6325 µM) | relative viability ([1]; first compound 2 µM) | relative viability (Zosuquidar + Alpelisib; first compound 0.01 µM) | relative viability (Zosuquidar + Alpelisib; first compound 0.03162 µM) | relative viability (Zosuquidar + Alpelisib; first compound 0.1 µM) | relative viability (Zosuquidar + Alpelisib; first compound 0.3162 µM) | relative viability (Zosuquidar + Alpelisib; first compound 1 µM) | relative viability (Kobe2602 + Alpelisib; first compound 0.2 µM) | relative viability (Kobe2602 + Alpelisib; first compound 0.6325 µM) | relative viability (Kobe2602 + Alpelisib; first compound 2 µM) | relative viability (Kobe2602 + Alpelisib; first compound 6.325 µM) | relative viability (Kobe2602 + Alpelisib; first compound 20 µM)
1 | HCC-44 | 0.864 | 0.784 | 0.808 | 0.757 | 0.855 | 0.855 | 0.85 | 0.841 | 0.834 | 0.85 | 0.753 | 0.817 | 0.842 | 0.885 | 0.755 | 0.852 | 0.793 | 0.767 | 0.725 | 0.737
2 | HCC-78 | 0.26 | 0.298 | 0.227 | 0.201 | 0.198 | 0.326 | 0.356 | 0.288 | 0.351 | 0.318 | 0.343 | 0.313 |  | 0.325 | 0.379 | 0.359 | 0.359 |  | 0.391 | 0.445
3 | HCC-366 | 0.585 | 0.619 | 0.445 | 0.328 | 0.294 | 0.71 | 0.778 | 0.547 | 0.358 | 0.385 | 0.519 | 0.449 | 0.337 | 0.438 | 0.401 | 0.364 | 0.493 | 0.309 | 0.429 | 0.496
4 | HCC-827 | 0.977 | 1.04 |  | 0.925 | 0.9 | 0.888 | 0.942 |  | 0.939 | 0.978 | 0.935 | 1.01 | 0.759 | 1.07 | 0.96 | 0.951 | 0.875 | 0.951 | 0.936 | 1.07
5 | HOP-62 | 0.981 | 1.02 | 1.43 | 0.807 | 1.08 | 0.821 | 1.06 | 1.14 | 0.89 | 0.902 | 1.05 | 0.79 | 0.907 | 1.08 | 0.988 | 1.05 | 0.846 | 0.934 | 0.809 | 1.25
6 | IA-LM | 0.874 | 0.876 | 0.928 | 0.941 | 0.952 | 0.962 | 0.795 | 0.908 | 0.755 | 0.92 | 0.818 | 0.908 | 0.714 | 0.909 | 0.773 |  | 0.778 | 0.602 | 0.683 | 0.751
7 | LC-2-ad | 0.869 | 0.976 | 0.834 | 0.659 | 0.45 | 0.438 | 0.606 | 0.493 | 0.474 | 0.467 | 0.892 | 0.938 | 0.817 | 0.886 | 0.928 | 0.846 | 0.866 | 0.916 | 0.883 | 1.01
8 | LCLC-97TM1 |  | 0.259 | 0.264 | 0.284 | 0.297 |  | 0.354 | 0.49 | 0.365 | 0.306 | 0.187 | 0.237 |  | 0.224 | 0.234 | 0.26 | 0.26 | 0.228 | 0.202 | 0.262
